Data as given in ChEMBL document CHEMBL5665443, “Enzyme Inhibitor Single Concentration assay results for EUbOPEN Chemogenomics Library” (2024).

Legend:
[1] = molecular target: Methyl-CpG-binding domain protein 4 (Homo sapiens) (UniProt O95243); conditions: Compound Concentration 10.0 uM;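 also: MBD4 activity read as fluorescence at 594 nm from cleavage and release of a quenched duplex DNA oligonucleotide, with APE1 coupled to incise the strand and raise turnover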
Description: Inhibition of MBD4 by quantifying inhibition of MBD4-mediated cleavage and dissociation of quenched duplex DNA oligonucleotides, measured as fluorescence at 594 nm. To generate a functional strand incision and increase turn-over this assay is coupled to APE1.

[2] = molecular target: DNA-3-methyladenine glycosylase (Homo sapiens) (UniProt P29372); conditions: Compound Concentration 10.0 uM;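 also: enzyme assay where MPG cuts a quenched duplex DNA oligonucleotide probe, paired with APE1 for strand incision and turnover, read as fluorescence at 594 nm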
DNA-3-methyladenine glycosylase (Homo sapiens), sequence (P29372 whole entry): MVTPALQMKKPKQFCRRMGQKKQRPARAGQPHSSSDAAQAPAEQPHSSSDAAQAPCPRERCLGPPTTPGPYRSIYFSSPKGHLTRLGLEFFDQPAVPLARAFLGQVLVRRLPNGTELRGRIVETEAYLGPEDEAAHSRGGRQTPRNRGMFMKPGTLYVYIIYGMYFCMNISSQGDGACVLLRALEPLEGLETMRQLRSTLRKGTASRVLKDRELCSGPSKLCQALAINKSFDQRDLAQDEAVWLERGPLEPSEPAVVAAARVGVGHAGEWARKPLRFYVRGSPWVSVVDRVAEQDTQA
Description: Inhibition of MPG by quantifying inhibition of MPG-mediated cleavage and dissociation of quenched duplex DNA oligonucleotides, measured as fluorescence at 594 nm. To generate a functional strand incision and increase turn-over this assay is coupled to APE1.

[3] = molecular target: T1, Adenine DNA glycosylase (Homo sapiens) (UniProt Q9UIF7); conditions: Compound Concentration 10.0 uM;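 also: human MUTYH activity read as 594 nm fluorescence from cleavage and release of a quenched DNA duplex, coupled with APE1 for strand incision, lower signal meaning inhibition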
T1 sequence (whole entry): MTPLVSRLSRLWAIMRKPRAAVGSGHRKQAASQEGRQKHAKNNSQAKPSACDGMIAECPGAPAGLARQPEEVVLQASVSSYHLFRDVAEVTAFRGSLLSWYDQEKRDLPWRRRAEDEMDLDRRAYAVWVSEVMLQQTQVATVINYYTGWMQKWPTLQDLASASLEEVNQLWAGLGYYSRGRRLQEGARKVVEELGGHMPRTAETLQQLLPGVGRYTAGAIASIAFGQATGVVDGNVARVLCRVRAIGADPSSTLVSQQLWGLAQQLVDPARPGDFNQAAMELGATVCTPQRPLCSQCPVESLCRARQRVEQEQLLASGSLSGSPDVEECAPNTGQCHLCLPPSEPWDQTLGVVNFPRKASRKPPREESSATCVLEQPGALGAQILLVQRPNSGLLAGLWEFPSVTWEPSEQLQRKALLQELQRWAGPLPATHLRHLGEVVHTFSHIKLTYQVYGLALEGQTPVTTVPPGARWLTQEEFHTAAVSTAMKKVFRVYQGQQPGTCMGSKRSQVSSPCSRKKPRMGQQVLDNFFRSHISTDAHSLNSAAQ
Description: Inhibition of MUTYH by quantifying inhibition of MUTYH-mediated cleavage and dissociation of quenched duplex DNA oligonucleotides, measured as fluorescence at 594 nm. To generate a functional strand incision and increase turn-over this assay is coupled to APE1.

[4] = molecular target: Endonuclease 8-like 1 (Homo sapiens) (UniProt Q96FI4); conditions: Compound Concentration 10.0 uM, Hit No;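 also: fluorescence at 594 nm from quenched duplex DNA oligonucleotides released by NEIL1 cleavage and strand separation, reported as reduction of this enzyme activity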
Endonuclease 8-like 1 (Homo sapiens), sequence (Q96FI4 whole entry): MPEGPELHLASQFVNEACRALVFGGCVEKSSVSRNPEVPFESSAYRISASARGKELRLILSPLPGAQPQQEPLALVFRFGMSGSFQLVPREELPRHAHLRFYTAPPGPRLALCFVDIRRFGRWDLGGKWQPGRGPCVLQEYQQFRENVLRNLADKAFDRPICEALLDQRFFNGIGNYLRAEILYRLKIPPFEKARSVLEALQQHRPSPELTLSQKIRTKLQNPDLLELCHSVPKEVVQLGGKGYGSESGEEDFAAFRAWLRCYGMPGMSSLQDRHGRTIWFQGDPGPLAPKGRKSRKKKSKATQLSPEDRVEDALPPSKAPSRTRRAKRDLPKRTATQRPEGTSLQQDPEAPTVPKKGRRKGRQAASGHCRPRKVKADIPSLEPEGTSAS
Description: Inhibition of NEIL1 by quantifying inhibition of NEIL1-mediated cleavage and dissociation of quenched duplex DNA oligonucleotides, measured as fluorescence at 594 nm.

[5] = molecular target: T2, Endonuclease 8-like 2 (Homo sapiens) (UniProt Q969S2); conditions: Compound Concentration 10.0 uM;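 also: fluorescence at 594 nm reports NEIL2 cutting and release of a quenched double-stranded DNA oligo substrate, reduced signal read as inhibition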
T2 sequence (whole entry): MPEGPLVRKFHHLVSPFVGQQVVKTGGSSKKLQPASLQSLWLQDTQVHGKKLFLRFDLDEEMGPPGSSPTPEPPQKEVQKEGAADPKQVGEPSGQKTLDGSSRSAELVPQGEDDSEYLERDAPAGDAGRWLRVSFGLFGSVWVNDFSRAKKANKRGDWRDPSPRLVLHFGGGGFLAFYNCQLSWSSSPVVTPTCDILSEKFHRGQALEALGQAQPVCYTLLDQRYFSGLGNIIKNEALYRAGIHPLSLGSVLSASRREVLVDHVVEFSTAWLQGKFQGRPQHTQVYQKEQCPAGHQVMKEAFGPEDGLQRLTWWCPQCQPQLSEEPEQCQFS
Description: Inhibition of NEIL2 by quantifying inhibition of NEIL2-mediated cleavage and dissociation of quenched duplex DNA oligonucleotides, measured as fluorescence at 594 nm.

[6] = molecular target: T3, Endonuclease III-like protein 1 (Homo sapiens) (UniProt P78549); conditions: Compound Concentration 10.0 uM, Hit No;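 also: enzyme assay tracking NTHL1 cutting and release of a quenched double-stranded DNA oligo substrate, read as fluorescence at 594 nm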
T3 sequence (whole entry): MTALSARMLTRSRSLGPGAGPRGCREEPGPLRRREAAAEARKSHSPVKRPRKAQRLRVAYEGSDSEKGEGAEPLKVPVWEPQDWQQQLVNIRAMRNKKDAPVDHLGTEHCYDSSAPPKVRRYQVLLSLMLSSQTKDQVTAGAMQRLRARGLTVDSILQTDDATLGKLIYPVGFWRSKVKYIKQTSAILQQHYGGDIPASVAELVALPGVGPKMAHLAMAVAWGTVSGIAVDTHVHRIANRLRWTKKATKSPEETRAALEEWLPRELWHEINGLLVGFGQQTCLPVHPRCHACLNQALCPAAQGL
Description: Inhibition of NTHL1 by quantifying inhibition of NTHL1-mediated cleavage and dissociation of quenched duplex DNA oligonucleotides, measured as fluorescence at 594 nm.

[7] = molecular target: N-glycosylase/DNA lyase (Homo sapiens) (UniProt O15527); conditions: Compound Concentration 10.0 uM, Hit No;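 also: OGG1 cleavage of a quenched duplex DNA oligonucleotide, coupled to APE1 for strand incision, read as fluorescence at 594 nm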
N-glycosylase/DNA lyase (Homo sapiens), sequence (O15527 whole entry): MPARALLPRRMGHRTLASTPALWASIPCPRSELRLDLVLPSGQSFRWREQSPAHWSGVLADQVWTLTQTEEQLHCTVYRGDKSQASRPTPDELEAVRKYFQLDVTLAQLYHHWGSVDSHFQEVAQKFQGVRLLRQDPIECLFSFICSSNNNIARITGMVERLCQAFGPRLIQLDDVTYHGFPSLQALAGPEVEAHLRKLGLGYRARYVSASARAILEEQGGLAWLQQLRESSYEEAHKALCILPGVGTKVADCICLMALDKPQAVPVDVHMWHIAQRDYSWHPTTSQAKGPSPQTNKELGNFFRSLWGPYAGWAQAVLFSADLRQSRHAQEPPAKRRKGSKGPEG
Description: Inhibition of OGG1 by quantifying inhibition of OGG1-mediated cleavage and dissociation of quenched duplex DNA oligonucleotides, measured as fluorescence at 594 nm. To generate a functional strand incision and increase turn-over this assay is coupled to APE1.

[8] = molecular target: G/T mismatch-specific thymine DNA glycosylase (Homo sapiens) (UniProt Q13569); conditions: Compound Concentration 10.0 uM;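 also: human TDG cleavage of quenched duplex DNA oligonucleotides coupled to APE1, strand release read as fluorescence at 594 nm, inhibition of TDG activity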
G/T mismatch-specific thymine DNA glycosylase (Homo sapiens), sequence (Q13569 whole entry): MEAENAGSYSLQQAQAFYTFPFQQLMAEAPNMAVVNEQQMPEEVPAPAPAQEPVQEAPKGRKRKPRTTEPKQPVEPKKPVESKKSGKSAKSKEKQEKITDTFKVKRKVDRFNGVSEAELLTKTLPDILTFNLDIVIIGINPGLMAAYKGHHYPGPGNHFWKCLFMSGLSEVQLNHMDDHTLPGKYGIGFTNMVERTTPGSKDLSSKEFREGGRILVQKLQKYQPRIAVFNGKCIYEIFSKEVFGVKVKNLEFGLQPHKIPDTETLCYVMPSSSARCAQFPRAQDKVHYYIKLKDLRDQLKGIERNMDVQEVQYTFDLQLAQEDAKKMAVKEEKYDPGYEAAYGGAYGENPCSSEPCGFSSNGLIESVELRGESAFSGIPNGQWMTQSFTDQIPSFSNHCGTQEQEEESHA
Description: Inhibition of TDG by quantifying inhibition of TDG-mediated cleavage and dissociation of quenched duplex DNA oligonucleotides, measured as fluorescence at 594 nm. To generate a functional strand incision and increase turn-over this assay is coupled to APE1.

[9] = molecular target: Uracil-DNA glycosylase (Homo sapiens) (UniProt P13051); conditions: Compound Concentration 10.0 uM, Hit No;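 also: UNG excision on a quenched double-stranded DNA oligo probe, with APE1 added for strand incision and turnover, read as fluorescence at 594 nm as strands separate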
Uracil-DNA glycosylase (Homo sapiens), sequence (P13051 whole entry): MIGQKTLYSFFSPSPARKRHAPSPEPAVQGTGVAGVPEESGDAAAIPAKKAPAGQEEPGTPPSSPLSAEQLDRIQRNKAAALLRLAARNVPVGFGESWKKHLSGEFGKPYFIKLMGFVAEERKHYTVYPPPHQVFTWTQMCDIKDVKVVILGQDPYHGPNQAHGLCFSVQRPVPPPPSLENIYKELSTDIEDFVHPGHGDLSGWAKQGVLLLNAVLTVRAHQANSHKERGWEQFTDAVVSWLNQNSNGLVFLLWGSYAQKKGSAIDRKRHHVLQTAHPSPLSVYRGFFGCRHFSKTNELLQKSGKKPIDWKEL
Description: Inhibition of UNG by quantifying inhibition of UNG-mediated cleavage and dissociation of quenched duplex DNA oligonucleotides, measured as fluorescence at 594 nm. To generate a functional strand incision and increase turn-over this assay is coupled to APE1.

Methyl-CpG-binding domain protein 4 (Homo sapiens), sequence (O95243 whole entry, the tested form may be a part): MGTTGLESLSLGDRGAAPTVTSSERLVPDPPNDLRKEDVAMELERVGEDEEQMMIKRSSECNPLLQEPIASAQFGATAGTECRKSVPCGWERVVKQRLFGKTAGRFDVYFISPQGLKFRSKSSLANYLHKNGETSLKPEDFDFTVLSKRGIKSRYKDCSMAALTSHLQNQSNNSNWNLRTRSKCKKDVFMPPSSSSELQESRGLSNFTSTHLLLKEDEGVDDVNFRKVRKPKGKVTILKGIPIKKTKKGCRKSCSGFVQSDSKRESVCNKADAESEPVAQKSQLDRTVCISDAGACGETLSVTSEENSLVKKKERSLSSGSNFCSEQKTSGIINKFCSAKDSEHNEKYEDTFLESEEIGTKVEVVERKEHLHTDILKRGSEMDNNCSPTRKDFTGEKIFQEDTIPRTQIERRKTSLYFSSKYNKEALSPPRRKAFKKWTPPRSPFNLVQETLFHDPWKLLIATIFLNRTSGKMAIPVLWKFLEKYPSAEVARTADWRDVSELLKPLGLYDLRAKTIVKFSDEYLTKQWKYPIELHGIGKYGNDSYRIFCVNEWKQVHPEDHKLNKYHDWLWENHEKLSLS

For `COc1cc2nc(N(C)CCCNC(=O)C3CCCO3)nc(N)c2cc1OC` (configuration not stated), which inhibition ([1]; Hit No) is on record?
The inhibition was 25.4%.

And the inhibition ([2]; Hit No)?
The inhibition was 21.4%.

What about the inhibition ([3]; Hit No) of the same compound?
Its inhibition is 34.2%.

And the inhibition [4]?
Its inhibition is -3.84%.

What about the inhibition ([5]; Hit Yes) of the same compound?
Its inhibition is 32.3%.

And the inhibition [6]?
Its inhibition is 27.8%.

And the inhibition [7]?
Its inhibition is -9.24%.

What about the inhibition ([8]; Hit No) of the same compound?
The inhibition was 16.1%.

What about the inhibition [9] of the same compound?
Its inhibition is -4.94%.

Which inhibition ([1]; Hit No) does the source give for `C[S+]([O-])c1ccc(-c2nc(-c3ccc(F)cc3)c(-c3ccncc3)[nH]2)cc1` (configuration not stated) here?
The inhibition was 16.5%.

What about the inhibition ([2]; Hit No) of the same compound?
The inhibition was 10.5%.

What about the inhibition ([3]; Hit No) of the same compound?
Its inhibition is 13.8%.

What about the inhibition [4] of the same compound?
Its inhibition is -8.51%.

What about the inhibition ([5]; Hit No) of the same compound?
The inhibition was -0.483%.

And the inhibition [6]?
The inhibition was 15.1%.

What about the inhibition [7] of the same compound?
The inhibition was 6.37%.

What about the inhibition ([8]; Hit No) of the same compound?
The inhibition was 17.7%.

And the inhibition [9]?
The inhibition was -3.45%.

For `CC1(C)CC(=O)c2c(SCCO)sc(-c3nccs3)c2C1`, which inhibition ([1]; Hit No) is on record?
The inhibition was 23.5%.

And the inhibition ([2]; Hit No)?
Its inhibition is 8.86%.

And the inhibition ([3]; Hit No)?
The inhibition was 15.5%.

And the inhibition [4]?
The inhibition was -2.21%.

And the inhibition ([5]; Hit No)?
The inhibition was 1.94%.

And the inhibition [6]?
Its inhibition is 28.6%.

And the inhibition [7]?
The inhibition was -7.89%.

What about the inhibition ([8]; Hit No) of the same compound?
The inhibition was 13.8%.

What about the inhibition [9] of the same compound?
The inhibition was -4.5%.

Which inhibition ([1]; Hit No) does the source give for `O=C(O)c1cccc(/C=C2/C[C@@H]3[C@@H](/C=C/[C@H](O)C4CCCCC4)[C@H](O)C[C@@H]3O2)c1` here?
Its inhibition is 16.8%.

And the inhibition ([2]; Hit No)?
Its inhibition is 18.3%.

And the inhibition ([3]; Hit No)?
Its inhibition is 18.1%.

And the inhibition [4]?
The inhibition was -8.73%.

And the inhibition ([5]; Hit No)?
The inhibition was -5.7%.

What about the inhibition [6] of the same compound?
Its inhibition is 15.4%.

And the inhibition [7]?
The inhibition was -8.69%.

What about the inhibition ([8]; Hit No) of the same compound?
The inhibition was 21.2%.

And the inhibition [9]?
Its inhibition is -4.36%.

Which results are given for `Clc1ccc(C2CC3CCC2N3)cn1` (configuration not stated)?
inhibition ([1]; Hit No): 11.8%; inhibition ([2]; Hit No): -6.44%; inhibition ([3]; Hit No): -3.17%; inhibition [4]: -1.03%; inhibition ([5]; Hit No): -3.41%; inhibition [6]: 7.17%; inhibition [7]: -8.75%; inhibition ([8]; Hit No): 20.8%; inhibition [9]: -9.39%

For `CCCCCCCCCCCCCCC[C@@H](O)[C@@H](N)COP(=O)(O)O`, which inhibition ([1]; Hit No) is on record?
Its inhibition is -8.45%.

What about the inhibition ([2]; Hit No) of the same compound?
Its inhibition is 9.63%.

What about the inhibition ([3]; Hit No) of the same compound?
Its inhibition is -9.71%.

And the inhibition [4]?
Its inhibition is 6.76%.

What about the inhibition ([5]; Hit No) of the same compound?
The inhibition was 4.76%.

And the inhibition [6]?
Its inhibition is 5.59%.

What about the inhibition [7] of the same compound?
Its inhibition is -0.598%.

What about the inhibition ([8]; Hit No) of the same compound?
Its inhibition is 3%.

And the inhibition [9]?
The inhibition was -5.95%.

With `CCCCCCNC(=O)Nc1ccc(S(=O)(=O)Nc2ccc(CCNC[C@H](O)COc3ccc(O)cc3)cc2)cc1` as the compound, how does the inhibition ([1]; Hit Yes) read?
The inhibition was 102%.

What about the inhibition ([2]; Hit Yes) of the same compound?
Its inhibition is 105%.

What about the inhibition ([3]; Hit Yes) of the same compound?
The inhibition was 107%.

What about the inhibition [4] of the same compound?
Its inhibition is -4.58%.

And the inhibition ([5]; Hit No)?
Its inhibition is -3.66%.

What about the inhibition [6] of the same compound?
The inhibition was 10.5%.

What about the inhibition [7] of the same compound?
Its inhibition is 3.62%.

And the inhibition ([8]; Hit Yes)?
The inhibition was 105%.

What about the inhibition [9] of the same compound?
Its inhibition is 5.25%.

Which results are given for `O=C(Nc1ccc(Cl)cc1)N[C@@H](Cc1ccccc1)C(=O)N1CCCCC1`?
inhibition ([1]; Hit No): 27.2%; inhibition ([2]; Hit No): 30.7%; inhibition ([3]; Hit No): 13.5%; inhibition [4]: 0.898%; inhibition ([5]; Hit No): -3.15%; inhibition [6]: 17.9%; inhibition [7]: -1.34%; inhibition ([8]; Hit No): 22.9%; inhibition [9]: -3.64%

With `CCCCC(=O)N(Cc1ccc(-c2ccccc2C(=O)O)cc1)c1ccccc1` as the compound, how does the inhibition ([1]; Hit No) read?
The inhibition was 33.4%.

And the inhibition ([2]; Hit No)?
Its inhibition is 11.5%.

And the inhibition ([3]; Hit No)?
The inhibition was 18%.

What about the inhibition [4] of the same compound?
Its inhibition is 1.79%.

And the inhibition ([5]; Hit No)?
The inhibition was -3.15%.

What about the inhibition [6] of the same compound?
Its inhibition is 7.17%.

What about the inhibition [7] of the same compound?
The inhibition was -7.96%.

And the inhibition ([8]; Hit No)?
Its inhibition is 23.9%.

What about the inhibition [9] of the same compound?
Its inhibition is -5.18%.

With `O=C(O)CCCCCC[C@H]1C(=O)NC(=O)N1CCC(O)C1CCCCC1` (some centres not stated) as the compound, how does the inhibition ([1]; Hit No) read?
Its inhibition is 9.44%.

And the inhibition ([2]; Hit No)?
The inhibition was -5.01%.

And the inhibition ([3]; Hit No)?
Its inhibition is 39.4%.

What about the inhibition [4] of the same compound?
Its inhibition is -4.58%.

What about the inhibition ([5]; Hit No) of the same compound?
The inhibition was -1.37%.

What about the inhibition [6] of the same compound?
The inhibition was 23.7%.

What about the inhibition [7] of the same compound?
The inhibition was -6.34%.

And the inhibition ([8]; Hit No)?
Its inhibition is 11%.

And the inhibition [9]?
The inhibition was -5.39%.

How did the inhibition ([1]; Hit No) turn out when `FC(F)(F)c1ccc(N2CCNCC2)nc1Cl` was run?
The inhibition was 12.7%.

And the inhibition ([2]; Hit No)?
Its inhibition is 8.14%.

And the inhibition ([3]; Hit No)?
The inhibition was -0.34%.

What about the inhibition [4] of the same compound?
The inhibition was -3.1%.

And the inhibition ([5]; Hit No)?
The inhibition was -1.62%.

What about the inhibition [6] of the same compound?
Its inhibition is 11.3%.

And the inhibition [7]?
The inhibition was -4.95%.

And the inhibition ([8]; Hit No)?
Its inhibition is 27.6%.

And the inhibition [9]?
Its inhibition is -2.44%.

Which results are given for `COc1ccc(CC(=O)NC(N/C(=N/C#N)Nc2cccc3ncccc23)C(C)(C)C)cc1OC` (configuration not stated)?
inhibition ([1]; Hit No): -7.77%; inhibition ([2]; Hit No): 7.8%; inhibition ([3]; Hit No): 7.91%; inhibition [4]: 3.12%; inhibition ([5]; Hit No): 1.94%; inhibition [6]: 16.2%; inhibition [7]: -8%; inhibition ([8]; Hit No): 7.3%; inhibition [9]: -5.2%

What does the source list for `CCCCC/C=C\C/C=C\C/C=C\C/C=C\CCCC(=O)OC(CO)CO`?
inhibition ([1]; Hit No): 28.4%; inhibition ([2]; Hit No): 3.34%; inhibition ([3]; Hit No): 14.2%; inhibition [4]: 4.39%; inhibition ([5]; Hit No): 12%; inhibition [6]: 9.99%; inhibition [7]: 1.41%; inhibition ([8]; Hit No): 27%; inhibition [9]: -9.11%
